The values that follow come from US9890139B2, “CYP17 inhibitors/antiandrogens” (Orion Corporation, priority 2013, dated 2018).

In assay [1] the target is T1, full-length human AR (Homo sapiens, UniProt P10275).
T1 construct: expression vector encoding full-length human AR; expressed in transfected cells; host or cells: HEK293 (hAR/HEK293 cells)
T1 sequence (P10275 1-920): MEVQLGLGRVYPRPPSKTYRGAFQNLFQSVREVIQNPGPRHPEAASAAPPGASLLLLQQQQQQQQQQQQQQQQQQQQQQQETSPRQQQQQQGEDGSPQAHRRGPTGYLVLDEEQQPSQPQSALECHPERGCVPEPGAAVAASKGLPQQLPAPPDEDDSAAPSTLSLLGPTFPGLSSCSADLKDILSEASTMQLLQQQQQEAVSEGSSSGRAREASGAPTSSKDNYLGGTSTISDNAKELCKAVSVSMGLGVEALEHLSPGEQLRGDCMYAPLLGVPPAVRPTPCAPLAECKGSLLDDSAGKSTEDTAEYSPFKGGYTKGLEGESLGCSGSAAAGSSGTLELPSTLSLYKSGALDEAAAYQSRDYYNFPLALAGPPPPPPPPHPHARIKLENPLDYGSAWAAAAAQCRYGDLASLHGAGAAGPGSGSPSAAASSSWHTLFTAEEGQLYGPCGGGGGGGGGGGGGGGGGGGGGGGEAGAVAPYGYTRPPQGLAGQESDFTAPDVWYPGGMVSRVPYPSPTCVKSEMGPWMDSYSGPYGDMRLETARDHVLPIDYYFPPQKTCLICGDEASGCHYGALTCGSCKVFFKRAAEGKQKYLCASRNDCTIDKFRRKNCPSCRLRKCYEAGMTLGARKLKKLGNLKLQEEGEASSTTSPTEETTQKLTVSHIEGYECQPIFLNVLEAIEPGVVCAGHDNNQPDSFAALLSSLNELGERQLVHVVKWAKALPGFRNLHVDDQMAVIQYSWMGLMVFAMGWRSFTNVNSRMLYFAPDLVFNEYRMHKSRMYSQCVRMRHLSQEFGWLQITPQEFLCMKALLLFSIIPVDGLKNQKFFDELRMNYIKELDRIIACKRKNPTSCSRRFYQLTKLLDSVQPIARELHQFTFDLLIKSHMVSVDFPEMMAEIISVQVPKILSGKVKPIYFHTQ
Nature of the assay: AR antagonism, reporter gene assay in hAR/HEK293 cells. It counts as cell-based. Particulars: HEK293 cells stably transfected with full-length human AR and androgen responsive luciferase reporter; co-treated with submaximal testosterone (usually 0.45 nM); 1% DMSO; triplicates. As for the experimental part: Antagonism of test compounds for AR was measured by reporter gene assay in human embryonic kidney (HEK293) cells stably transfected with an expression vector encoding full-length human AR and androgen responsive luciferase reporter gene construct (hAR/HEK293 cells). To determine antagonism for hAR, the cells were treated simultaneously with increasing concentrations of the test compound and submaximal concentration of testosterone (usually 0.45 nM). The final DMSO concentration was 1%. All test compounds were studied in triplicates. The cells were incubated for […] before measurement of luciferase activity using Luciferase Assay System (Promega Corporation).

In assay [2] the target is T2, 17,20 lyase (CYP17) (Homo sapiens, UniProt P05093).
T2 construct: endogenous in cells; host or cells: H295R human adrenocortical carcinoma cells
T2 sequence (P05093 1-508): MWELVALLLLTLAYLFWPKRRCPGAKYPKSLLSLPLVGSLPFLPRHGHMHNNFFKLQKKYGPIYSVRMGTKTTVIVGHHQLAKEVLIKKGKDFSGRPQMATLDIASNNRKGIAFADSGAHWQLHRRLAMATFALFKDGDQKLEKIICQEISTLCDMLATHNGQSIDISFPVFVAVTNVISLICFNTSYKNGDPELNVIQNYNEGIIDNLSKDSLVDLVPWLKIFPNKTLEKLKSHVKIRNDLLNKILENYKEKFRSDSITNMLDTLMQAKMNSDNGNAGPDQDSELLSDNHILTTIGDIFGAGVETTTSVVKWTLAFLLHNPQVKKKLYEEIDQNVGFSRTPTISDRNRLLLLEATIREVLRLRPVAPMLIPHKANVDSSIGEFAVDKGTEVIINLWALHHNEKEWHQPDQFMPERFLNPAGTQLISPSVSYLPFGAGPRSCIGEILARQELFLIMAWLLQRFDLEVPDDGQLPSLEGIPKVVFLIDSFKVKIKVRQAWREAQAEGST
In words: 17,20 lyase (CYP17) inhibition, acetic acid release assay (AARA) on H295R cells. It is filed as cell-based. The protocol: The ability of the test compounds to inhibit 17,20 lyase catalysed conversion of 17α-hydroxypregnenolone to dehydroepiandrosterone and acetic acid was measured by acetic acid release assay (AARA) on human H295R adrenocortical carcinoma cell line (Grigoryev, D. N. et al., Analytical Biochemistry 1999; 267:319-330). […] The final DMSO concentration was 1%. Cell culture medium was extracted with dextran-coated charcoal suspension (Isomaa, V. et al., Endocrinology 1982; 111(3):833-843). ^3H-acetic acid was determined by mixing 100 μl of supernatant fraction in 200 μl of scintillation fluid (OptiPhase SuperMix, Perkin Elmer). Radioactivity was measured using a Microbeta scintillation counter (1450 MicroBeta Trilux, Wallac). All the test compounds were studied in quadruplicates.

[3] abbreviates: human H295R adrenocortical carcinoma cells, overnight (16-19 h) with 17α-[21-3H]hydroxypregnenolone, 3H-acetic acid release, 1% DMSO, quadruplicates, read-out: CYP17 inhibition IC50.

Where two headings read alike, the source gives them in different places.

Usually IC50 stands for the point on the concentration scale where inhibition reaches its midpoint. In the case of `CCN(c1ccc(C#N)c(C(F)(F)F)c1)C1CC=C(c2cncn2C2CC2)C1` (racemic) [Ex. 53, 4-((3-(1-Cyclopropyl-1H-imidazol-5-yl)cyclopent-3-enyl)(ethyl)amino)-2-(trifluoromethyl)benzonitrile], the IC50 in assay [1] was found to be 57 nM; in assay [2] it was 19 nM.

`CN(c1ccc(C#N)c(C(F)(F)F)c1)C1C=C(n2ccnc2)CCC1(C)C` (racemic) [Ex. 130 racemate, 4-{[3-(1H-Imidazol-1-yl)-6,6-dimethylcyclohex-2-enyl](methyl)amino}-2-(trifluoromethyl)benzonitrile]: the figures for the IC50 in assay [1] and in assay [2] (setting [3]) were 65 nM and 14 nM, respectively.

With `CCn1cncc1C1=CCC(N(CC2CC2)c2ccc(C#N)c(C(F)(F)F)c2)C1` (racemic) [Ex. 226 racemate, 4-((Cyclopropylmethyl)(3-(1-ethyl-1H-imidazol-5-yl)cyclopent-3-en-1-yl)-amino)-2-(trifluoromethyl)benzonitrile], the values for the IC50 in assay [1] and in assay [2] were 29 nM and 43 nM, respectively.

As to `CCN(c1ccc(C#N)c(Cl)c1)C1CC=C(c2cncn2CC)C1` (racemic) [Ex. 227 racemate, 2-Chloro-4-(ethyl(3-(1-ethyl-1H-imidazol-5-yl)cyclopent-3-en-1-yl)amino)-benzonitrile], the values for the IC50 in assay [1] and in assay [2] were 57 nM and 19 nM, respectively.

With `CCN(c1ccc(C#N)c(C(F)(F)F)c1)[C@H]1CCC[C@@H](c2ccncc2)C1` (relative stereo) [Ex. 61, cis-4-(Ethyl(3-(pyridin-4-yl)cyclohexyl)amino)-2-(trifluoromethyl)benzonitrile], the IC50 stood at 35 nM in assay [1] and 108 nM in assay [2].

Turning to `CN(c1ccc(C#N)c(C(F)(F)F)c1)[C@@H]1C=C(n2ccnc2)[C@H](O)CC1(C)C` (relative stereo) [Ex. 236, Cis-4-((4-hydroxy-3-(1H-imidazol-1-yl)-6,6-dimethylcyclohex-2-enyl)-(methyl)amino)-2-(trifluoromethyl)benzonitrile], the IC50 stood at 124 nM in assay [1] and 247 nM in assay [2].

Consider `CN(c1ccc(C#N)c(Cl)c1)C1CC(c2c[nH]cn2)=CCC1(C)C` (single isomer, unassigned) [Ex. 2 enantiomer 1, 4-((3-(1H-imidazol-4-yl)-6,6-dimethylcyclohex-3-enyl)(methyl)amino)-2-chlorobenzonitrile], for which the IC50 in assay [2] (setting [3]) is 27 nM.

With `CN(c1ccc(C#N)c(C(F)(F)F)c1)C1C=C(n2ccnc2)CCC1` (single isomer, unassigned) [Ex. 6 enantiomer 1, 4-((3-(1H-imidazol-1-yl)cyclohex-2-enyl)(methyl)amino)-2-(trifluoromethyl)benzonitrile], in assay [2] (setting [3]), the IC50 came to 74 nM.

With `CCN(c1ccc(C#N)c(C(F)F)c1)C1C=C(n2ccnc2)CCC1(C)C` (single isomer, unassigned) [Ex. 31 enantiomer 1, 4-((3-(1H-imidazol-1-yl)-6,6-dimethylcyclohex-2-enyl)(ethyl)amino)-2-(difluoromethyl)benzonitrile], the IC50 in assay [2] (setting [3]) stood at 23 nM.

Regarding `CN(c1ccc(C#N)c(C(F)(F)F)c1)C1CC(n2ccnc2)CCC1(C)C` (single isomer, unassigned) [Ex. 47 cis-enantiomer 3, 4-((5-(1H-Imidazol-1-yl)-2,2-dimethylcyclohexyl)(methyl)amino)-2-(trifluoromethyl)benzonitrile], in assay [2] (setting [3]), the IC50 was 18 nM.

As to `CN(c1ccc(C#N)c(C(F)(F)F)c1)C1C(O)C(c2c[nH]cn2)=CCC1(C)C` (single isomer, unassigned) [Ex. 245, 4-{[2-Hydroxy-3-(1H-imidazol-4-yl)-6,6-dimethylcyclohex-3-enyl](methyl)-amino}-2-(trifluoromethyl)benzonitrile], in assay [2] (setting [3]), the IC50 came out at 97 nM.

`CN(c1ccc(C#N)c(C(F)(F)F)c1)C1CC(c2c[nH]cn2)=CCC1(C)C` (single isomer, unassigned; diastereomer 1) [Ex. 244 diastereomer 1, 4-{[3-(1H-Imidazol-4-yl)-6,6-dimethylcyclohex-3-enyl](methyl)amino}-2-(trifluoromethyl)benzonitrile]: the IC50 in assay [2] (setting [3]) came out at 116 nM.

Take `CCN(c1cc(F)c(C#N)c(F)c1)C1CCCC(n2ccnc2)C1` (single isomer, unassigned; diastereomer 4) [Ex. 12 cis-diastereomer]: the IC50 in assay [2] (setting [3]) worked out at 18 nM.

As to `CCN(c1ccc(C#N)c(C(F)(F)F)c1)C1CCC=C(c2cccnc2)C1(C)C` (stereo not drawn) [Ex. 97, 4-((2,2-dimethyl-3-(pyridin-3-yl)cyclohex-3-en-1-yl)(ethyl)amino)-2-(trifluoromethyl)benzonitrile], the concentration for half-maximal inhibition (IC50) in assay [2] (setting [3]) amounted to 66 nM.

Regarding `CCN(c1ccc(C#N)c(C(F)(F)F)c1)C1CCC=C(c2c[nH]cn2)C1(C)C` (stereo not drawn) [Ex. 100, 4-((3-(1H-imidazol-4-yl)-2,2-dimethylcyclohex-3-en-1-yl)(ethyl)amino)-2-(trifluoromethyl)benzonitrile], the IC50 in assay [2] (setting [3]) came to 36 nM.

Turning to `CCN(c1ccc(C#N)c(Cl)c1)C1CC=C(c2c[nH]cn2)C1` (stereo not drawn) [Ex. 133, 4-((3-(1H-Imidazol-4-yl)cyclopent-3-en-1-yl)(ethyl)amino)-2-chlorobenzonitrile], the IC50 in assay [2] (setting [3]) was 7 nM.

On to `CCN(c1ccc(C#N)c(C(F)(F)F)c1)C1CC=C(c2c[nH]cn2)C1` (stereo not drawn) [Ex. 150, 4-((3-(1H-imidazol-4-yl)cyclopent-3-en-1-yl)(ethyl)amino)-2-(trifluoromethyl)benzonitrile], for which the half-inhibitory concentration (IC50) in assay [2] (setting [3]) is 17 nM.

`CCN(c1ccc(C#N)c(C(F)(F)F)c1)C1CCC(c2cnc[nH]2)C1` (stereo not drawn) [Ex. 219, 4-((3-(1H-imidazol-5-yl)cyclopentyl)(ethyl)amino)-2-(trifluoromethyl)-benzonitrile]: in assay [2] (setting [3]), the IC50 is 105 nM.

Take `CN(c1ccc(C#N)c(C(F)(F)F)c1)C1C=C(c2cncn2CCOCc2ccccc2)CCC1(C)C` (stereo not drawn) [Ex. 220, 4-((3-(1-(2-(benzyloxy)ethyl)-1H-imidazol-5-yl)-6,6-dimethylcyclohex-2-en-1-yl)(methyl)amino)-2-(trifluoromethyl)benzonitrile]: the IC50 in assay [2] (setting [3]) was determined as 10 nM.

Consider `CCN(c1ccc(C#N)c(C(F)(F)F)c1)C1CCCC(c2cnc[nH]2)C1` (stereo not drawn) [Ex. 224 cis-diasteromer, 4-((3-(1H-imidazol-5-yl)cyclohexyl)(ethyl)amino)-2-(trifluoromethyl)benzonitrile], for which the IC50 in assay [2] (setting [3]) turned out to be 59 nM.

Consider `CN(c1ccc(C#N)c(C(F)(F)F)c1)[C@@H]1C=C(n2ccnc2)[C@@H](O)CC1(C)C` [Ex. 262, 4-(((1R,4S)-4-hydroxy-3-(1H-imidazol-1-yl)-6,6-dimethylcyclohex-2-en-1-yl)(methyl)-amino)-2-(trifluoromethyl)benzonitrile], for which the IC50 in assay [1] came out at 89 nM.
